Tests used:
[1] = tested on: MCP-1 production by THP-1 cells; assay: MCP-1 production by macrophages (opsonized zymosan stimulated, ELISA); assay type: cell-based; conditions: Homo sapiens, 24 hours, 1 mg/mL opsonized zymosan, FIG. 11
Description: (§1) The human macrophage cell line, THP-1 is plated in a 12 well plate such that each well contains 1×10^6 cells in 2 mL of media containing 10% FCS. Opsonized zymosan is prepared by resuspending 20 mg of zymosan A in 2 mL of ddH2O and homogenizing until a uniform suspension is obtained. Homogenized zymosan is pelleted at 250 g and resuspended in 4 mL of human serum for a final concentration of 5 mg/mL. and incubated in a 37° C. water bath for 20 minutes to enable opsonization. Geldanamycin is prepared in DMSO at a concentration of 10^−2 M and serially diluted 10-fold to give a range of stock concentrations (10^−8 M to 10^−2 M).
THP-1 cells are stimulated to produce MCP-1 by the addition of 1 mg/mL opsonized zymosan. Geldanamycin is added to THP-1 cells by directly adding DMSO stock solutions, prepared earlier, at a 1/1000 dilution, to each well. […]
(§2) After a 24 hour stimulation, supernatants are collected to quantify MCP-1 production. MCP-1 concentrations in the supernatants are determined by ELISA using recombinant human MCP-1 to obtain a standard curve. […] The dilution of Capture Antibody used is lot-specific and is determined empirically. […] Stop Solution (2 N H2SO4) is then added to the wells and a yellow colour reaction is read at 450 nm with λ correction at 570 nm. Mean absorbance is determined from triplicate data readings and the mean background is subtracted. […]

[2] = tested on: IL-1β production by THP-1 cells; assay: IL-1β production by macrophages (opsonized zymosan stimulated, ELISA); assay type: cell-based; conditions: Homo sapiens, 24 hours, 1 mg/mL opsonized zymosan, FIG. 9
Description: as §1
THP-1 cells are stimulated to produce IL-1β by the addition of 1 mg/mL opsonized zymosan. Geldanamycin is added to THP-1 cells by directly adding DMSO stock solutions, prepared earlier, at a 1/1000 dilution, to each well. […]
as §2, with “IL-1β” for “MCP-1”

[3] = tested on: IL-8 production by THP-1 cells; assay: IL-8 production by macrophages (opsonized zymosan stimulated, ELISA); assay type: cell-based; conditions: Homo sapiens, 24 hours, 1 mg/mL opsonized zymosan, FIG. 10
Description: as §1
THP-1 cells are stimulated to produce IL-8 by the addition of 1 mg/mL opsonized zymosan. Geldanamycin is added to THP-1 cells by directly adding DMSO stock solutions, prepared earlier, at a 1/1000 dilution, to each well. […]
as §2, with “IL-8” for “MCP-1”

human fibroblasts = assay: Screening assay for effect on cell proliferation (CYQUANT fluorescence); assay type: cell-based; conditions: Fibroblast, 72 hours incubation, FIG. 2
Description: Fibroblasts at 70-90% confluency are trypsinized, replated at 600 cells/well in media in 96-well plates and allowed to attachment overnight. Mitoxantrone is prepared in DMSO at a concentration of 10^−2 M and diluted 10-fold to give a range of stock concentrations (10^−8 M to 10^−2 M). Drug dilutions are diluted 1/1000 in media and added to cells to give a total volume of 200 μL/well. Each drug concentration is tested in triplicate wells. Plates containing fibroblasts and mitoxantrone are incubated at 37° C. for 72 hours (In vitro toxicol. (1990) 3:219; Biotech. Histochem. (1993) 68: 29; Anal. Biochem. (1993) 213:426).
To terminate the assay, the media is removed by gentle aspiration. A 1/400 dilution of CYQUANT 400× GR dye indicator (Molecular Probes; Eugene, Ore.) is added to […] Cell Lysis buffer, and 200 μL of the mixture is added to the wells of the plate. Plates are incubated at room temperature, protected from light for 3-5 minutes. Fluorescence is read in a fluorescence microplate reader at ˜480 nm excitation wavelength and ˜520 nm emission maxima. […] An average of n=4 replicate experiments is used to determine IC50 values.

collagenase expression = assay: Effect of other anti-microtubule agents on IL-1-induced collagenase expression in primary chondrocytes; assay type: cell-based, calf; conditions: pre-incubation of chondrocytes 6 hours, then IL-1 20 ng/ml 18 hours; FIGS. 7A-H
Description: Primary chondrocyte cultures were freshly isolated from calf cartilage. The cells were plated at 2.5×10^6 per ml in 100×20 mm culture dishes and incubated in Ham's F12 medium containing 5% FBS overnight at 37° C. The cells were starved in serum-free medium overnight and then treated with anti-microtubule agents at various concentrations for 6 hours. IL-1 (20 ng/ml) was then added to each plate and the plates incubated for an additional 18 hours. Total RNA was isolated by the acidified guanidine isothiocyanate method and subjected to electrophoresis on a denatured gel. Denatured RNA samples (15 μg) were analyzed by gel electrophoresis in a 1 % denatured gel, transferred to a nylon membrane and hydridized with the ^32P-labeled collagenase cDNA probe. ^32P-labeled glyceraldehyde phosphate […] (GAPDH) cDNA as an internal standard to ensure roughly equal loading. The exposed films were scanned and quantitatively analyzed with ImageQuant.

COC1=C2C[C@@H](C)C[C@H](OC)[C@H](O)[C@@H](C)/C=C(\C)[C@H](OC(N)=O)[C@@H](OC)/C=C\C=C(/C)C(=O)NC(=CC1=O)C2=O [geldanamycin]
IC50 [1]: 7 nM | IC50 [2]: 20 nM | IC50 [3]: 27 nM

O=C1c2c(O)ccc(O)c2C(=O)c2c(NCCNCCO)ccc(NCCNCCO)c21 [Mitoxantrone, 9,10-Anthracenedione, 1,4-dihydroxy-5,8-bis[[2-[(2-hydroxyethyl)amino]ethyl]amino]-]
IC50 (human fibroblasts): 20 nM

CCOC(=O)CN [glycine ethyl ester]
concentration (as low as) preventing IL-1-induced collagenase expression (collagenase expression): 100 nM

hexylene glycol
concentration (as low as) preventing IL-1-induced collagenase expression (collagenase expression): 100 nM

ethylene glycol bis-(succinimidylsuccinate)
concentration (as low as) preventing IL-1-induced collagenase expression (collagenase expression): 100 nM

N#CC1=C(N)Oc2c(ccc3ccccc23)C1c1cccc([N+](=O)[O-])c1 (stereo not shown) [LY290181]
concentration (as low as) preventing IL-1-induced collagenase expression (collagenase expression): 100 nM

[2H]O[2H] [deuterium oxide]
concentration (as low as) preventing IL-1-induced collagenase expression (collagenase expression): 100 nM

[F][Al]([F])[F] [AIF3]
concentration (as low as) preventing IL-1-induced collagenase expression (collagenase expression): 100 nM

Source: patent US20040260318A1, “Anastomotic connector devices” (Angiotech International AG, priority 2003, published 2004)
